This note sets out measurements from the METLIN SMRT retention time set (Domingo-Almenara et al. 2019).

This data set can be described thus: gradient 5% acetonitrile 3 min, to 50% in 2 min, to 85% in 15 min, held 3 min, 100 µL/min. Particulars: column: Zorbax Extend-C18 2.1 x 50 mm; eluents: water / acetonitrile, 0.1% formic acid. In a few lines: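 Standards, all pure, were combined into mixtures of ~100 molecules and run at 100 μL/min on a Zorbax Extend-C18 column (2.1 × 50 mm, 1.8 μm) with water and acetonitrile, each containing 0.1% formic acid. A coupled quadrupole time-of-flight mass spectrometer operated in positive and negative ionization mode. Retention time values come from computationally picked adduct peaks, each inspected manually.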
As to `Cc1ccn2c(NC(=O)c3ccc4ccccc4c3)c(-c3ccc(F)cc3)nc2c1`, the RP-LC retention time came to 765 s.
Regarding `COc1cccc(-c2noc(Cc3nnc(-c4cccc(C)c4)o3)n2)c1OC`, the RP-LC retention time was 961 s.
Then `Cn1cc(C2=CCN(S(=O)(=O)c3ccc(F)cc3)CC2)c2cccnc21`, with 949 s; and `O=C(CSc1nnc(NC(=O)c2c(F)cccc2Cl)s1)c1ccccc1`, with 888 s.
Then `COCCNC(=O)c1ccc(-n2nc(Sc3ccc(Cl)cc3)ccc2=O)cc1`, with 828 s; and `Cn1c(=O)c(SCC(=O)NCc2ccccc2Cl)nc2cccnc21`, with 786 s.
Then `O=S(=O)(c1cccc2cccnc12)N1CCCn2nc(-c3ccncc3)cc2C1`, with 610 s.
The molecule `O=S(=O)(NCc1cccnc1-c1ccc(F)cc1)c1ccc(Br)cc1` yielded an RP-LC retention time of 801 s.
Under `CCN(CC)C(=O)CN1CCN(c2cc(C(=O)O)c3cc(NC(=O)C(C)(C)C)ccc3n2)CC1` stands 572 s; under `COc1ccc(N2CCN(C(=O)c3ccc4c(c3)N(C)C(=O)C3CCCCN43)CC2)cc1` (stereo not given), 832 s.
The molecule `O=C(NCCc1csc(-c2cccs2)n1)C1CCN(C(=O)C2CCCCC2)CC1` yielded an RP-LC retention time of 817 s.
`COc1ccc(C(=O)NCCc2cn3cccc(C)c3n2)c(OC)c1`: the RP-LC retention time turned out to be 551 s.
`COc1ccccc1-c1noc(Cn2ccn3nc(-c4ccc(Cl)cc4)cc3c2=O)n1` returned an RP-LC retention time of 1040 s.
Under `CCS(=O)(=O)c1ccc2c(c1)N(Cc1nc(-c3ccccc3OC)no1)C(=O)CO2` stands 810 s; under `COc1cc(C)c(C)cc1S(=O)(=O)N1CCN(c2ccc(-c3cccnc3)nn2)CC1`, 649 s.
Then `Clc1cc(Br)ccc1-c1ccc(CNCC2CCNCC2)o1`, with 605 s; and `Cn1nnc2c(SCc3c(F)cccc3Cl)ncnc21`, with 933 s; and `Cc1ccc2nc(-c3cccc(Cl)c3)c(Nc3ccccc3C)n2c1`, with 807 s.
Take `O=S(=O)(NCc1cccnc1)c1cc(-c2nnc(-c3ccccc3)o2)ccc1F`: the RP-LC retention time was found to be 673 s.
Then `Cc1nc(C)c(C(=O)N2CC(N(CC(C)C)C3CCN(C)CC3)C2)s1`, with 567 s; and `COC(=O)c1cc2c(=O)n(-c3cc(Cl)cc(Cl)c3)ccc2nc1C`, with 1010 s; and `Cc1cccc(N2C(=O)CN(CCCc3ccccc3)[C@H]3CS(=O)(=O)C[C@H]32)c1`, with 871 s.
`O=C(c1ccc2c(c1)OCO2)N1CCN(c2ncnc3c2CCC3)CC1` showed an RP-LC retention time of 588 s.
Under `COc1ccc(N(C(=O)Nc2ccccc2OC)C2=NCCC2)cc1Cl` stands 1060 s.
Take `CS(=O)(=O)c1ccc(CC(=O)N2CC(Cc3nncn3CC3CC3)C2)cc1`: the RP-LC retention time worked out at 592 s.
Under `Cc1ccccc1-c1nnc(CSc2nnc(NC(=O)c3c(F)cccc3F)s2)o1` stands 905 s.
Then `O=C(Nc1ccc(F)cc1F)C1CCCN(c2ncnc3c2nc2n3CCCCC2)C1` (stereo not given), with 824 s; and `Cc1c(C(=O)C(=O)N2CCc3ccccc3C2)c2ccccc2n1C`, with 913 s.
As for `CCOC(=O)C1=C(CN2CCN(c3ccccn3)CC2)NC(=O)NC1c1ccc(OC)cc1` (stereo not given), the RP-LC retention time amounted to 612 s.
Then `CN1CCN(CCCNC(=O)c2ccc3c(c2)N(C)C(=O)C2CCCCN32)CC1` (stereo not given), with 575 s; and `CCS(=O)(=O)Nc1cccc(C(=C2CCCCC2)c2cnc[nH]2)c1`, with 738 s; and `O=C1c2cccc3c2[C@@H](CCC3)CN1[C@@H]1CN2CCC1CC2`, with 664 s.
Turning to `COc1cc([C@@H]2c3cc4c(cc3[C@H](O)[C@@H](CO)[C@@H]2C(=O)NCCCN(C)C2CCCCC2)OCO4)cc(OC)c1OC`, the RP-LC retention time was found to be 573 s.
Under `Cc1sc2ccn(CC(C)C)c(=O)c2c1C(=O)NCc1ccccc1` stands 930 s; under `CCC1CCCCN1S(=O)(=O)c1cc(-c2nnc(C)o2)co1` (stereo not given), 857 s.
Turning to `CCOc1ccc(NC(=O)C2CCN(S(=O)(=O)c3cn(CC)cn3)CC2)cc1`, the RP-LC retention time came to 784 s.
Under `COc1ccccc1-c1nnc(-c2ccc(Cl)c(S(=O)(=O)N3CCCCCC3)c2)o1` stands 1150 s; under `COc1ccccc1CNC(=O)c1nc(N2CCOCC2)c2c(C)cc(C)nc2n1`, 643 s; under `CCCc1cc(C2CCCN2C(=O)Nc2ccccc2OC)no1` (stereo not given), 901 s.
The molecule `Cc1ccc(CNC(=O)Cn2cccc2-c2nnc(-c3ccccc3)o2)o1` yielded an RP-LC retention time of 882 s.
Regarding `CC(=O)N1C[C@@H]2CCCN3CCC[C@@H]([C@H]23)[C@H]1CCCC(=O)N(C)CCc1c(C)nn(C)c1C`, the RP-LC retention time came to 556 s.
`Cc1nc(-c2ccccn2)cc2nn(CC(=O)NCC3CCCO3)c(=O)n12` (stereo not given) showed an RP-LC retention time of 604 s.
Then `CCn1cnc2cc(-c3noc(CNC(=O)Cc4ccc(Cl)cc4)n3)ccc21`, with 658 s; and `CSc1cccc(NC(=O)C2CCCN(c3ncnc4c3nc3n4CCCCC3)C2)c1` (stereo not given), with 866 s.
Then `Cc1cc(NC(=O)c2cc3c(=O)n4cccc(C)c4nc3s2)no1`, with 792 s.
For the molecule `CNC(=O)[C@@H]1CN(C(=O)CCc2cc(OC)no2)C[C@H]1c1n[nH]c(C)n1`, the RP-LC retention time amounted to 553 s.
Under `CC(C)n1nnc2cc(C(=O)N(C)C)ccc21` stands 648 s; under `CC(C)COc1cc(=O)n2c(c1C(=O)NC1CCN(C)CC1)CCCCC2`, 571 s; under `COc1ccc(-c2noc(C3(NC(=O)COc4ccccc4)CCCCC3)n2)cc1`, 1170 s.
The molecule `COc1ccc(Nc2nc(-c3nnn(-c4cccc(Cl)c4)c3C)ns2)cc1OC` showed an RP-LC retention time of 963 s.
Under `Cc1ccccc1CNc1nc2ccncc2n(C(C)C)c1=O` stands 745 s; under `CCN(CC)C(=O)c1cnc2snc(C)c2c1N1CCC(C(=O)Nc2ccc(Br)cc2)CC1`, 990 s; under `COc1ccc(-c2noc(-c3nn(-c4ccc(OC)cc4)ccc3=O)n2)cc1`, 827 s.
Then `CCS(=O)(=O)c1ccc2c(c1)N(Cc1nc(-c3ccccc3Cl)no1)C(=O)CO2`, with 895 s; and `CCC(Oc1ccc(=O)n(-c2ccc(F)cc2)n1)C(=O)NCc1ccc2c(c1)OCO2` (stereo not given), with 752 s; and `Cc1ccc(S(=O)(=O)NC2CCN(C(=O)Cc3c[nH]c4ccccc34)CC2)cc1`, with 775 s.
Consider `Cn1cc(C(=O)NCc2nc(-c3ccccc3)no2)nn1`, for which the RP-LC retention time was found to be 661 s.
Turning to `Cc1nc2ccccc2nc1SCC(=O)c1ccccc1`, the RP-LC retention time worked out at 970 s.
`CCc1ccccc1S(=O)(=O)Nc1ccc2c(c1)CCC(=O)N2CCOC`: the RP-LC retention time is 816 s.
`CCCc1noc(-c2ccnc(-n3ncc(C(=O)N4CCCC4)c3C)c2)n1` showed an RP-LC retention time of 896 s.
Then `CCn1ccc2c(cc(C(=O)Nc3cc(Cl)c(OC)cc3OC)n2C)c1=O`, with 810 s.
Then `Cc1ccccc1OCC(=O)N1CCN(c2cc(C)n3c(C)nnc3n2)CC1`, with 630 s; and `COc1ccccc1-c1nc(-c2cccc(-c3ccnn3C)c2)no1`, with 1020 s.
With `Cc1nc(CSc2ccc(-c3cccc([N+](=O)[O-])c3)nn2)cs1`, the RP-LC retention time amounted to 817 s.
Under `Cc1cc2c(N3CCCC(C(=O)NCc4ccccc4C(F)(F)F)C3)nccc2s1` (stereo not given) stands 738 s; under `O=C(NCc1ccccc1OC(F)(F)F)c1ccc(OCC(=O)C2CC2)cc1`, 876 s; under `CCCN(Cc1ccc(OC)cc1)Cc1cc(=O)n2cc(Cl)ccc2n1`, 654 s.
Then `CCn1c(C(=O)NCc2ccccc2Cl)cc2sc(Cl)cc21`, with 1190 s; and `COc1ccc(CCNc2ncnc3c2cnn3-c2ccccc2)cc1OC`, with 783 s.
Under `Cc1cc(S(=O)(=O)N2CC(F)(F)C[C@H]2CN2CCc3ccccc3C2)ccc1F` stands 790 s; under `CCCCN1C(=O)C(C)(C(=O)Nc2ccc(F)cc2)Oc2cccnc21` (stereo not given), 1030 s; under `COc1ccc2nc(C(=O)NC3CCCCCC3)cn2n1`, 878 s.
Molecule `COCc1nc2cccnc2n1C1CCN(C(=O)Nc2ccc(Br)cc2)CC1` returned an RP-LC retention time of 747 s.
In turn, `c1cn(-c2cc(NC3CCCC3)ncn2)cn1` had an RP-LC retention time of 613 s.
Then `CCCn1ncc(N2CCC(C(=O)N3CCN(C(C)C)CC3)CC2)cc1=O`, with 566 s; and `Cn1nc(C(=O)NCC2(C)CCOCC2)c2ccccc21`, with 763 s; and `COc1ccc2c(c1)c(CN1CCC(C(=O)NCCN3CCCCC3)CC1)cn2C`, with 562 s.
Then `CC(=O)Nc1ncncc1N1CCC(C(=O)NCc2cccc(C(F)(F)F)c2)CC1`, with 698 s; and `O=C1C(O)=C(S(=O)(=O)c2ccc(Cl)cc2)C(c2ccc(F)cc2)N1Cc1ccco1` (stereo not given), with 972 s; and `Cc1cnc(-c2cc(N3CCN(C(=O)CCS(C)(=O)=O)CC3)ncc2Cl)c(C)c1`, with 728 s.
